Measurements: paper PMC11054274, “Dual Antitubercular and Antileishmanial Profiles of Quinoxaline Di-N-Oxides Containing an Amino Acidic Side Chain” (Pharmaceuticals, 2024)
Where two headings read alike, the source gives them in different places.

Tests used:
[1] = Cytotoxicity assay on macrophages (resazurin); assay type: cell-based, murine; conditions: mouse, J774 macrophages, Table S2; 24 h exposure; read-out: Toxicity against J774 macrophages CC50
Procedure: (§1) J774 murine macrophages were grown in RPMI-1640 medium (Sigma) supplemented with 10% heat-inactivated FBS (30 min at 56 °C) (SIGMA-Merck), penicillin G (100 U/mL) and streptomycin (100 µg/mL). For the experiments, cells in the pre-confluence phase were harvested with trypsin. Cell cultures were maintained at 37 °C in a humidified environment with 5% CO2.
(§2) Cell viability was evaluated using a modification with resazurin of the colorimetric method described previously. J774 macrophages were seeded (5 × 10^4 cells/well) in 96-well flat-bottom microplates with 100 µL of RPMI-1640 medium. The cells were allowed to adhere for 4 h at 37 °C in 5% CO2, then different concentrations of the test compounds in 100 µL of the medium were added and exposed for 24 h. Growth controls were also included. To evaluate cell viability, 20 µL of a 2.5 mM resazurin solution was added and the plates were returned to the incubator for another 3 h. The reduction in resazurin was determined by measuring the fluorescence intensity (excitation wavelength, 535 nm; emission wavelength, 590 nm). Each concentration was assayed three times. The medium and controls were used in each test as blanks. The cytotoxic effect of the compounds was defined as the 50% reduction in cell viability of treated culture cells with respect to the untreated culture (CC50).

[2] = test system: Leishmania donovani promastigotes; assay: Promastigote susceptibility assay (resazurin), L. donovani; assay type: cell-based; conditions: for IC50: Table S2, 48 h; for IC50 / activity against L. donovani (in words): promastigotes; for L. donovani promastigote selectivity index (SI): SI = CC50 (J774 macrophages)/IC50
Procedure: (§3) The following species of Leishmania were used: L. donovani (MHOM/IN/80/DD8), which was purchased (ATCC, Manassas, VA, USA), and L. amazonensis (MHOM/Br/79/Maria), which was kindly provided by Prof. Alfredo Toraño (Instituto de Salud Carlos III, Madrid, Spain). Promastigotes were cultured in Schneider’s Insect Medium supplemented with 10% heat-inactivated Fetal Bovine Serum (FBS) (SIGMA-Merck, Madrid, Spain) and 1000 U/L of penicillin plus 100 mg/L of streptomycin in 25 mL culture flasks at 26 °C.
(§4) The activity of the compounds on Leishmania promastigotes was performed according to the method previously reported by us. Briefly, promastigotes (2.5 × 10^5 parasites/well) were cultured in 96-well plastic plates. The compounds were dissolved in dimethylsulfoxide (DMSO). Serial dilutions at 1:2 of the test compounds in fresh culture medium were performed (100, 50, 25, 12.5, 6.25, 3.12, 1.56 and 0.78 µg/mL) in a final volume of 200 µL; the solutions were then added to the parasite suspension. After an incubation period of 48 h at 26 °C, a volume of 20 μL of 2.5 mM resazurin solution in PBS was added and the plates were incubated for 3 h under the same conditions. Finally, the Relative Fluorescence Unit (RFU) (535ex–590em nm wavelength) was determined in a fluorimeter (Infinite 200 Tecan i-Control). Growth inhibition (%) was calculated by 100—[(RFU treated wells—RFU signal-to-noise)/(RFU untreated—RFU signal-to-noise) × 100]. All tests were carried out in triplicate and the IC50 was calculated by probit analysis using SPSS 17.0 Statistics Software. Miltefosine (Sigma-Merck, Madrid, Spain) was used as the reference drug.

[3] = test system: Leishmania amazonensis promastigotes; assay: Promastigote susceptibility assay (resazurin), L. amazonensis; assay type: cell-based; conditions: for IC50: Table S2, 48 h, read-out: L. amazonensis IC50 (promastigote); for IC50 / activity against L. amazonensis (in words): promastigotes; for L. amazonensis promastigote selectivity index (SI): SI = CC50 (J774 macrophages)/IC50
Procedure: as §3, §4

[4] = test system: J774 murine macrophages; assay: Cytotoxicity assay on macrophages (resazurin); assay type: cell-based; conditions: for CC50: 24 h exposure, read-out: Toxicity against J774 macrophages CC50
Procedure: as §1, §2

[5] = test system: Mycobacterium tuberculosis H37Rv; assay: In vitro activity against Mycobacterium tuberculosis H37Rv, microdilution AlamarBlue broth assay (BacTiter-Glo alternative read-out); assay type: cell-based; conditions: for IC90: read-out: IC90, antibacterial activity against Mtb H37Rv
[6] = test system: Leishmania amazonensis amastigotes; assay: Intracellular amastigote assay in J774 macrophages, L. amazonensis; assay type: cell-based; conditions: for IC50: Table S3, intracellular amastigotes, 48 h, read-out: L. amazonensis IC50 (amastigote)
Procedure: We performed an intracellular amastigote assay on L. amazonensis and L. donovani according to a fluorometric method reported by us. To carry out the in vitro macrophage infections, 5 × 10^4 cells were cultured in RPMI-1640 medium and then were infected with 5 × 10^5 promastigotes. In the L. donovani assays, the plates were incubated for 48 h at 37 °C, while in the L. amazonensis assays, they were incubated at 33 °C for the first 24 h and then the temperature was increased to 37 °C for the next 24 h. After, the culture medium was removed and the cells were washed with buffered RPMI-HEPES at pH 7.4 several times in order to eliminate the non-internalized promastigotes. A total of 100 µL of fresh medium tempered at 37 °C was added to the infected cells, which then were exposed to 100 µL of the test compounds in RPMI-1640 at different concentrations (100, 50, 25, 12.5, 6.25, 3.12, 1.56 and 0.78 µg/mL in a final volume of 200 µL) for 48 h at 37 °C. The culture medium was removed by centrifugation at 3500 rpm for 5 min (Centrifuge 5403 Eppendorf) and a lysis solution (0.02% sodium dodecyl sulfate in RPMI-HEPES) was added. After 20 min, the treated cells were harvested (centrifugation at 3500 rpm for 5 min at 4 °C) and the supernatants were replaced by 200 μL of fresh Schneider’s culture medium. The plates were then incubated at 26 °C for another 3 days to allow for the transformation of viable amastigotes into promastigotes and proliferation. Afterwards, 20 μL/well of 2.5 mM resazurin was added and incubated for another 3 h. Finally, URF was measured and IC50 was estimated as described above. All tests were carried out in triplicate. Miltefosine was used as the reference drug.

[7] = Table S1, Mtb H37Rv, read-out: IC50, antibacterial activity against Mtb H37Rv
[8] = Mycobacterium tuberculosis, Table S1, Mtb H37Rv, read-out: IC50, antibacterial activity against Mtb H37Rv
[9] = Mycobacterium tuberculosis, Table S1, Mtb H37Rv
[10] = Mycobacterium tuberculosis, H37Rv strain, read-out: IC50 against Mycobacterium tuberculosis H37Rv

Molecule | CC50 at 24 h [1] | IC50 ([2]; Leishmania donovani) | IC50 ([3]; Leishmania amazonensis) | L. amazonensis promastigote selectivity index (SI) [3] | CC50 ([4]; Table S2) | IC50 [2] | IC50 [3] | IC50 [5, 7] | IC90 ([5]; Table S1, Mtb H37Rv) | IC50 [5, 8] | IC90 [5, 9] | further results
O=C(O)CNC(=O)c1c(-c2ccc(F)cc2)[n+]([O-])c2ccccc2[n+]1[O-] [Compound 5d, 2-((Carboxymethyl)carbamoyl)-3-(4-fluorophenyl)quinoxaline 1,4-dioxide] | 840 µM | > 280 µM | > 280 µM | > 3.0 | – | – | – | – | – | – | – | –
COC(=O)CNC(=O)c1c(-c2ccc(OC)cc2)[n+]([O-])c2ccccc2[n+]1[O-] [Compound 4b] | – | – | – | – | 1570 µM | 261 ± 7.8 µM | 157 ± 7.8 µM | 40.6 µM | 69.8 µM | – | – | –
CC[C@@H](CO)NCCN[C@@H](CC)CO [Ethambutol, reference compound] | – | – | – | – | – | – | – | – | – | 1.56 µM | 32.8 µM | –
COC(=O)CNC(=O)c1c(-c2ccc(C(F)(F)F)cc2)[n+]([O-])c2cc(C)ccc2[n+]1[O-] [Compound 4l, N-(6-Methyl-1,4-dioxide-3-(4-trifluoromethylphenyl)quinoxaline-2-carbonyl)glycine methyl ester] | – | – | – | – | 1380 µM | – | > 230 µM | 7.2 µM | 15.5 µM | – | – | activity against L. donovani (in words) [2]: inactive; activity against L. amazonensis (in words) [3]: inactive
COC(=O)CNC(=O)c1c(-c2ccc(C(F)(F)F)cc2)[n+]([O-])c2ccccc2[n+]1[O-] [Compound 4c] | – | – | – | – | 6960 µM | > 238 µM | > 238 µM | 13.2 µM | 25.9 µM | – | – | activity against L. donovani (in words) [2]: inactive; activity against L. amazonensis (in words) [3]: inactive
COc1ccc2c(c1)[n+]([O-])c(-c1ccc(C)cc1)c(C(=O)O)[n+]2[O-] [Compound 6, 2-Carboxy-6-methoxy-3-(4-tolyl)quinoxaline 1,4-dioxide] | 424 µM | 6.2 ± 0.2 µM | 20.5 ± 2.5 µM | 20.7 | – | – | – | – | – | 45 µM | 76.4 µM | IC50 ([6]; Leishmania amazonensis, J774): 31.9 ± 13.2 µM; L. amazonensis amastigote selectivity index (SI) ([6]; SI = CC50 (J774 macrophages)/IC50): 13.3; L. donovani promastigote selectivity index (SI) [2]: 68.4
COc1ccc2c(c1)[n+]([O-])c(-c1ccc(C(F)(F)F)cc1)c(C(=O)NCC(=O)O)[n+]2[O-] [Compound 5h, 2-((Carboxymethyl)carbamoyl)-6-methoxy-3-(4-(trifluoromethyl)phenyl)quinoxaline 1,4-dioxide] | 1830 µM | > 229 µM | > 229 µM | > 8 | – | – | – | – | – | 16.4 µM | 22 µM | –
COC(=O)CNC(=O)c1c(-c2ccccc2)[n+]([O-])c2cc(C(F)(F)F)ccc2[n+]1[O-] [Compound 4n, N-(1,4-Dioxide-6-trifluoromethyl-3-phenylquinoxaline-2-carbonyl)glycine methyl ester] | – | – | – | – | 191 ± 29.3 µM | 43.5 ± 1.1 µM | 97.3 ± 4.3 µM | 11.9 µM | 27.9 µM | – | – | –
NCC[C@H](O)C(=O)N[C@@H]1C[C@H](N)[C@@H](O[C@H]2O[C@H](CN)[C@@H](O)[C@H](O)[C@H]2O)[C@H](O)[C@H]1O[C@H]1O[C@H](CO)[C@@H](O)[C@H](N)[C@H]1O [Amikacin, reference compound] | – | – | – | – | – | – | – | – | – | 0.07 µM | 0.08 µM | –
N[C@@H]1CON=C1O [Cycloserine, reference compound] | – | – | – | – | – | – | – | – | – | – | 13.5 µM | IC50 [5, 10]: 12.5 µM
COc1ccc2c(c1)[n+]([O-])c(-c1ccccc1)c(C(=O)NCC(=O)OCc1ccccc1)[n+]2[O-] [Compound 4f, N-(6-Methoxy-1,4-dioxide-3-(phenyl)quinoxaline-2-carbonyl)glycine benzyl ester] | – | – | – | – | – | > 261 µM | > 261 µM | 21.9 µM | 47.9 µM | – | – | activity against L. donovani (in words) [2]: inactive; activity against L. amazonensis (in words) [3]: inactive
COC(=O)CNC(=O)c1c(-c2ccc(C)cc2)[n+]([O-])c2cc(OC)ccc2[n+]1[O-] [Compound 4j, N-(6-Methoxy-1,4-dioxide-3-(4-methylphenyl)quinoxaline-2-carbonyl)glycine methyl ester] | 318.6 ± 0.84 µM | 13.8 ± 9.5 µM | 111 ± 4 µM | 2.9 | – | – | – | – | – | 12.9 µM | 24.6 µM | L. donovani promastigote selectivity index (SI) [2]: 23.2
COC(=O)CNC(=O)c1c(-c2ccccc2)[n+]([O-])c2ccccc2[n+]1[O-] [Compound 4a, N-(1,4-Dioxide-3-phenylquinoxaline-2-carbonyl)glycine methyl ester] | – | – | – | – | 850 µM | 103 ± 9.8 µM | 171 ± 8.5 µM | 26.3 µM | 55.5 µM | – | – | CC50 ([4]; Table S3): 850 µM; IC50 [6]: 12.6 ± 0.3 µM
COc1ccc2c(c1)[n+]([O-])c(-c1ccccc1)c(C(=O)NCC(=O)O)[n+]2[O-] [Compound 5f, 2-((Carboxymethyl)carbamoyl)-6-methoxy-3-phenylquinoxaline 1,4-dioxide] | 8130 µM | > 271 µM | > 271 µM | > 30 | – | – | – | – | – | 4.28 µM | 9.86 µM | –
N-(1,4-Dioxide-3-((4,5-dimethoxy-2-nitro-phenyl)quinoxaline-2-carbonyl)glycine benzyl ester [Compound 4e] | – | – | – | – | 18.5 ± 3.4 µM | 34 ± 5.2 µM | 25.1 ± 0.56 µM | 25.2 µM | 47.9 µM | – | – | toxicity to macrophages (in words) [4]: highly toxic to macrophages
CCc1nc(N)nc(N)c1-c1ccc(Cl)cc1 [Pyrimethamine, reference compound] | – | – | – | – | – | – | – | – | – | – | 75 µM | IC50 [5, 10]: 37.4 µM
NNC(=O)c1ccncc1 [Isoniazid, reference compound] | – | – | – | – | – | – | – | – | – | 0.18 µM | 0.29 µM | –
Cc1ccc2c(c1)[n+]([O-])c(-c1ccc(F)cc1)c(C(=O)NCC(=O)O)[n+]2[O-] [Compound 5m, 2-((Carboxymethyl)carbamoyl)-3-(4-fluorophenyl)-6-methylquinoxaline 1,4-dioxide] | 8090 µM | > 270 µM | > 270 µM | > 30 | – | – | – | – | – | 17.2 µM | 35.1 µM | –
